Measurements published in article PMC6381791, “Filamentous Aggregates Are Fragmented by the Proteasome Holoenzyme” (Cell Reports, 2019).
Numbered stars: 1 amine (or outer) side, 2 acyl side, 3 side chain; on linkers, the order of the positions; unused ones are H or OH. Peptide text beside a SMILES is read from it. * marks the point of attachment. AMC = Cc1cc(=O)oc2cc(N*)ccc12; Suc = O=C(CCC(=O)[*:2])[*:1]

Columns and labels:
[1] = biological target: T1, α-synuclein (αS), fibrils (Homo sapiens, UniProt P37840); test: TIRF single-aggregate fluorescence; assay type: binding; conditions: 30 nM pFTAA in PBS, 100 nM αS (monomer equivalent); binds amyloid fibrils
T1 construct: gene SNCA; untagged wild-type recombinant from E. coli BL21(DE3) pLysS; fibrils assembled in PBS with shaking

[2] = biological target: T2, 26S proteasome holoenzyme (proteolytic core sites) (Homo sapiens, UniProt P28074); test: AMC fluorescence ([…] nm); assay type: biochemical; conditions: 1 μM substrate, 40 nM proteasome, alone or with heparin or tau aggregates
T2 construct: gene PSMB5; 26S holoenzyme (20S core with one or two 19S caps) purified from HEK293T via Rpn11-His6-TEV-biotin, TEV eluted; with Proteasome subunit beta type-1; Proteasome subunit beta type-2; Proteasome subunit beta type-3; Proteasome subunit beta type-4; Proteasome subunit alpha type-1; Proteasome subunit alpha type-2; Proteasome subunit alpha type-3; Proteasome subunit alpha type-4; Proteasome subunit alpha type-5; Proteasome subunit alpha type-6; Proteasome subunit alpha type-7; 26S proteasome non-ATPase regulatory subunit 14

| SMILES | TIRF single-aggregate fluorescence [1] | AMC fluorescence (340/440 nm) [2] |
| --- | --- | --- |
| O=C(O)Cc1cc(-c2ccc(C(=O)O)s2)sc1-c1ccc(-c2sc(-c3ccc(C(=O)O)s3)cc2CC(=O)O)s1 [pFTAA] | Fibrils assembled from αS could be reproducibly detected | – |
| Cc1cc(=O)oc2cc(NC(=O)[C@H](Cc3ccc(O)cc3)NC(=O)[C@@H](NC(=O)[C@H](CC(C)C)NC(=O)[C@H](CC(C)C)NC(=O)CCC(=O)O)C(C)C)ccc12 [LLVY-AMC] (Suc-LLVY-{AMC}) | – | proteasomal peptidase activity against a model substrate, suc-Leu-Leu-Val-Tyr-7-amino-4-methylcoumarin (LLVY-AMC) |
